Assay results as given in patent publication US10294302B2, “Therapeutic method and medicament for HTLV-1 associated myelopathy” (priority 2012, dated 2019).
Read-outs that look alike come from different tables or passages of the source.

B1: Mogamulizumab (antibody, chains of the INN, looked up, V domains shown)
VH: EVQLVESGGDLVQPGRSLRLSCAASGFIFSNYGMSWVRQAPGKGLEWVATISSASTYSYYPDSVKGRFTISRDNAKNSLYLQMNSLRVEDTALYYCGRHSDGNFAFGYWGQGTLVTVSS
VL: DVLMTQSPLSLPVTPGEPASISCRSSRNIVHINGDTYLEWYLQKPGQSPQLLIYKVSNRFSGVPDRFSGSGSGTDFTLKISRVEAEDVGVYYCFQGSLLPWTFGQGTKVEIK
notes: anti-human CCR4 humanized antibody, manufactured by Kyowa Hakko Kirin

Tests used:
[1] = cited from earlier work
[2] = tested on: TNF-α production in PBMCs of HAM patients; assay: TNF-α production in PBMC culture supernatant (Cytometric Bead Array); assay type: cell-based, human; details: 7 days culture; combination: 0.1 μg/mL PSL+0.01 μg/mL-10 μg/mL KM2760 versus KM2760 alone
Experimental: (§1) In order to examine the inhibitory effect of anti-human CCR4 antibody and adrenocorticosteroid drug on inflammatory cytokine production in PBMCs of HAM patients, PBMCs of HAM patients were cultured, and the concentrations of IFN-γ, TNF-α, IL-2, IL-6 and IL-10 in the culture supernatants were measured.
(§2) PBMCs of HAM patients were cultured for 7 days in the same manner as in Example 2, and the culture supernatants were recovered after cultivation. The concentrations of the cytokines were measured using kits for measuring cytokine concentrations (all manufactured by BD Biosciences), Human IFNγ Flex kit (cat. 560111), Human TNFα Flex kit (cat. 560122), Human IL-6 Flex kit (cat. 558276), Human IL-2 Flex kit (cat. 558270) and Human IL-10 Flex kit (cat. 558274) by BD™ Cytometric Bead Array (CBA) (FIGS. 4A, 4B, 5A, 5B, 6A, 6B, 7A, 7B, 8A and 8B).
(§3) Inhibitory effects of anti-human CCR4 chimeric antibody KM2760 and anti-human CCR4 humanized antibody Poteligeo® (manufactured by Kyowa Hakko Kirin co., Ltd.) on spontaneous cell proliferation, the amount of HTLV-1 provirus DNA, and the cytokine production in PBMCs of HAM patients (N=11) were examined in the same manner as in Examples 1, 2, and 4.

[3] = tested on: HTLV-1 proviral DNA in PBMCs derived from HAM patients; assay: Amount of HTLV-1 proviral DNA in PBMCs by real time-PCR; assay type: cell-based
Experimental: Then, genomic DNAs were extracted from PBMCs of HAM patients using phenol/chloroform.
(§4) Real time-polymerase chain reaction (hereinafter, abbreviated to PCR) was performed using the extracted genomic DNA as a template, and TaqMan probes for HTLV-1 pX region and human β-actin, and a primer set of each gene.
(§5) As a standard sample of HTLV-1 pX, a genomic DNA derived from HTLV-1 infected rat TARL2 cell line where 1 copy/cell of HTLV-1 pX region was integrated was used, and as a standard sample of β-actin, a genomic DNA derived from PBMC of a normal person was used to perform PCR at the same time and to obtain a standard curve. The copy numbers of pX and β-actin of each sample were calculated using the standard curve, and the amount of HTLV-1 proviral DNA was determined by the following Equation (FIGS. 2A and 2B). Amount of HTLV-1 proviral DNA: copy number of HTLV-1(pX)/100 PBMC cells=(copy number of pX)/(copy number of β-actin/2)×100
Cultivation was performed in the same manner, and the absolute amount of the HTLV-1 proviral DNA per well was determined (FIGS. 2C and 2D).
In the same manner as above, 1×10^−6 μg/mL-10 μg/mL of KM2760 were added to culture PBMCs derived from HAM patients, and at 7 days after cultivation, the amounts of HTLV-1 proviral DNA were determined (FIG. 2E).
(§6) In all assays, the proliferation rate (FIGS. 3A and 3B) or the amount of HTLV-1 proviral DNA (FIGS. 3C and 3D) was represented as a percentage, when the well treated with no drug was taken as 100%.

[4] = tested on: IL-6 production in PBMCs of HAM patients; assay: IL-6 production in PBMC culture supernatant (Cytometric Bead Array); assay type: cell-based, human; details: 7 days culture; combination: 0.1 μg/mL PSL+0.01 μg/mL-10 μg/mL KM2760 versus KM2760 alone
Experimental: as §1, §2, §3

[5] = tested on: PBMCs derived from HAM patients; assay: Spontaneous cell proliferation of PBMCs by 3H-thymidine up-take; assay type: cell-based, human; details: for cell proliferation compared to non-drug treatment: Example 3, FIGS. 3A and 3B
Source text: PBMCs of HAM patients and asymptomatic HTLV-1 carriers (AC) were isolated from peripheral bloods that were collected from 9 HAM patients and 8 asymptomatic HTLV-1 carriers by Ficoll density gradient centrifugation, and frozen and stored in liquid nitrogen until assay. The isolated PBMCs were suspended in an RPMI1640 medium containing 10% fetal bovine serum (hereinafter, abbreviated to FBS), 1% penicillin and 1% streptomycin (manufactured by Wako Pure Chemical Industries, Ltd.) (hereinafter, abbreviated to RPMI medium) without proliferation stimulation, and seeded at a density of 1×10^5 cells/100 μL/well in a 96-well round bottom plate. A well added with 1 μg/mL of prednisolone (PSL) was prepared as a positive control, and wells added with 0-10 μg/mL of anti-human CCR4 chimeric antibody KM2760 were prepared as a subject antibody. Cultivation was performed under the conditions of 37° C. and 5% CO2 for 6 days.
After cultivation, 1 μCi ^3H-thymidine was added to each well, and further cultured for 16 hours. After cultivation, the cells were recovered, and specific radioactivity was measured using a liquid scintillation counter (Micro Beta) to determine cell proliferation rate (%) (FIGS. 1A, 1B). The up-take of ^3H-thymidine in the non-drug-treated well was taken as 100%, and the ratio was determined.
In the same manner as in Example 1, PBMCs isolated from the peripheral blood of HAM patient were seeded in a 96-well bottom plate. A well added with 0.1 or 1 μg/mL of prednisolone and wells added with 0.1 μg/mL prednisolone+0.01-10 μg/mL of anti-human CCR4 chimeric antibody KM2760 were prepared to perform cultivation.
For cell proliferation assay by ^3H-thymidine up-take, ^3H-thymidine was added at 6 days after cultivation in the same manner as in Example 1, and further cultured for 16 hours. Further, the amount of HTLV-1 proviral DNA was determined at 7 days after cultivation in the same manner as in Example 2.
as §6, §3

[6] = tested on: HTLV-1 proviral DNA in PBMCs derived from asymptomatic HTLV-1 carriers (ACs); assay: Amount of HTLV-1 proviral DNA in PBMCs by real time-PCR (asymptomatic carriers); assay type: cell-based; details: 1 μg/mL; 7 days; AC N=8, FIG. 2F
Experimental: The amount of HTLV-1 proviral DNA was quantified in accordance with the method described in Yamano et al (Blood, 2002; 99: 88-94) and Nagai et al (J. Infectious Diseases; 2001; 183: 197-205).
At 7 days after cultivation, cells were recovered from each well, and the recovered cells were suspended in a buffer containing 50 mM Tris-HCl (pH 8.0), 20 mM EDTA, 0.1 M NaCl and 1% SDS (hereinafter, referred to as lysis buffer), and then 150 μg/mL of proteinase K (manufactured by Wako Pure Chemical Industries, Ltd.) was added thereto, followed by shaking at 55° C. overnight. Then, genomic DNAs were extracted from PBMCs of HAM patients using phenol/chloroform.
as §4
as §5, with “Amount of HTLV-1 proviral DNA: copy number of HTLV-1(pX)/100 PBMC cells=(copy number of pX)/(copy number of β-actin/2)×100” left out

[7] = tested on: IFN-γ production in PBMCs of HAM patients; assay: IFN-γ production in PBMC culture supernatant (Cytometric Bead Array); assay type: cell-based, human; details: 7 days culture; combination: 0.1 μg/mL PSL+0.01 μg/mL-10 μg/mL KM2760 versus KM2760 alone
Experimental: as §1, §2, §3

[8] = tested on: IL-2 production in PBMCs of HAM patients; assay: IL-2 production in PBMC culture supernatant (Cytometric Bead Array); assay type: cell-based, human; details: 7 days culture; combination: 0.1 μg/mL PSL+0.01 μg/mL-10 μg/mL KM2760 versus KM2760 alone
Experimental: as §1, §2, §3

[9] = tested on: PBMCs derived from HAM patients; assay: Actual number of cells after cultivation of PBMCs; assay type: cell-based, human; details: 1 μg/mL; 7 days after cultivation; FIG. 1C
Experimental: In the same manner, PBMCs derived from HAM patients were cultured by addition of 1×10^−6 μg/mL-10 μg/mL of KM2760, and at 7 days after cultivation, the actual number of cells was counted (FIG. 1C).

[10] = tested on: IL-10 production in PBMCs of HAM patients; assay: IL-10 production in PBMC culture supernatant (Cytometric Bead Array); assay type: cell-based, human; details: 7 days culture; combination: 0.1 μg/mL PSL+0.01 μg/mL-10 μg/mL KM2760 versus KM2760 alone
Experimental: as §1, §2, §3

[11] = PSL 1 μg/mL, antibody up to 10 μg/mL, 7 days, compared to non-drug treatment

Row | Molecule | blood concentration ([1]; oral administration of 50 mg to a clinical patient) | blood concentration ([1]; oral administration of a low dose of 5 mg to a clinical patient) | inhibition of TNF-α production (in words) [2] | effect on the amount of proviral DNA (in words) ([3]; 1 μg/mL, 7 days, FIG. 2E) | absolute amount of HTLV-1 proviral DNA of each well compared to non-drug treatment ([3]; 1 μg/mL, Example 3, FIGS. 3E and 3F) | absolute amount of HTLV-1 proviral DNA per well, fraction of non-drug treatment ([3]; 1 μg/mL, FIGS. 2C and 2D) | effect on the amount of HTLV-1 proviral DNA (in words) ([3]; 0.1 or 1 μg/mL, Example 3) | effect on the amount of HTLV-1 proviral DNA (in words) [3, 11] | inhibition of IL-6 production (in words) [4] | cell proliferation compared to non-drug treatment ([5]; 0.1 μg/mL) | cell proliferation compared to non-drug treatment ([5]; 1 μg/mL) | inhibition at 1 µg/mL ([5]; Homo sapiens, PBMC, 1 μg/mL, 6 days + 16 h 3H-thymidine, 9 HAM patients, FIG. 1B, read-out: cell proliferation inhibition compared to non-drug treatment) | effect on the amount of proviral DNA (in words) [6] | inhibition of IFN-γ production (in words) [7] | inhibition of IL-2 production (in words) [8] | number of cells compared to non-drug treatment [9] | inhibition of IL-10 production (in words) [10] | inhibition of spontaneous cell proliferation (in words) ([5]; antibody 0-10 μg/mL, 3H-thymidine up-take)
1 | C[C@]12C=CC(=O)C=C1CC[C@@H]1[C@@H]2[C@@H](O)C[C@@]2(C)[C@H]1CC[C@]2(O)C(=O)CO [PSL, prednisolone] | approximately 1 μg/mL | approximately 0.1 μg/mL | inhibited the production of all cytokines | almost didn't reduce the amount of proviral DNA | approximately 50% | ⅓ | almost didn't reduce the amount of HTLV-1 proviral DNA | did not show the effect of reducing the amount of HTLV-1 proviral DNA | inhibited the production of all cytokines | approximately 70% | ~50% | ~50% | almost didn't reduce the amount of proviral DNA | inhibited the production of all cytokines | inhibited the production of all cytokines | approximately 50% | – | –
2 | B1 | – | – | inhibited | – | – | – | – | inhibited | inhibited | – | – | – | – | inhibited | inhibited | – | inhibited | inhibited
